Four molecules from patent US8198438B2, “Pyrrolotriazine kinase inhibitors” (Bristol-Myers Squibb Company, priority 2007, dated 2012) can be followed below.

By pIC50 is commonly meant −log10 of the IC50, conventionally taken in molar units.

What all share (assay type): biochemical
One test deals with CDK2E (Homo sapiens, UniProt P24941). Briefly: CDK 2/Cyclin E Kinase Assay. Particulars: ATP 30 μM; CDK2E 0.2 nM; Caliper LabChip 3000. How it is done:
A. CDK 2/Cyclin E Kinase Assay
(§1) The assays were performed in U-bottom 384-well plates. The final assay volume was 30 μl prepared from 15 μl additions of enzyme and substrates (fluoresceinated CDK2E substrate peptide and ATP) and test compounds in assay buffer (100 mM HEPES pH 7.4, 10 mM MgCl2, 0.015% Brij35 and 4 mM DTT). The reaction was initiated by the combination of bacterially expressed, CDK2E with substrates and test compounds. The reaction was incubated at room temperature for 60 min. and terminated by adding 30 μl of 35 mM EDTA to each sample. The reaction mixture was analyzed on the Caliper LabChip 3000 by electrophoretic separation of the fluorescent substrate and phosphorylated product Inhibition data were calculated by comparison to no enzyme control reactions for 100% inhibition and vehicle-only reactions for 0% inhibition. The final concentration of reagents in the assays is ATP, 30 μM; FL-peptide, 1.5 μM; CDK2E, 0.2 nM; and DMSO, 1.6%. Dose response curves were generated to determine the concentration required inhibiting 50% of kinase activity (IC50). Compounds were dissolved at 10 mM in dimethylsulfoxide (DMSO) and evaluated at eleven concentrations, each in duplicate. IC50 values were derived by non-linear regression analysis.

For a further test, the target named is T1, FLT3 (Homo sapiens, UniProt P36888).
T1 sequence (P36888 27-993): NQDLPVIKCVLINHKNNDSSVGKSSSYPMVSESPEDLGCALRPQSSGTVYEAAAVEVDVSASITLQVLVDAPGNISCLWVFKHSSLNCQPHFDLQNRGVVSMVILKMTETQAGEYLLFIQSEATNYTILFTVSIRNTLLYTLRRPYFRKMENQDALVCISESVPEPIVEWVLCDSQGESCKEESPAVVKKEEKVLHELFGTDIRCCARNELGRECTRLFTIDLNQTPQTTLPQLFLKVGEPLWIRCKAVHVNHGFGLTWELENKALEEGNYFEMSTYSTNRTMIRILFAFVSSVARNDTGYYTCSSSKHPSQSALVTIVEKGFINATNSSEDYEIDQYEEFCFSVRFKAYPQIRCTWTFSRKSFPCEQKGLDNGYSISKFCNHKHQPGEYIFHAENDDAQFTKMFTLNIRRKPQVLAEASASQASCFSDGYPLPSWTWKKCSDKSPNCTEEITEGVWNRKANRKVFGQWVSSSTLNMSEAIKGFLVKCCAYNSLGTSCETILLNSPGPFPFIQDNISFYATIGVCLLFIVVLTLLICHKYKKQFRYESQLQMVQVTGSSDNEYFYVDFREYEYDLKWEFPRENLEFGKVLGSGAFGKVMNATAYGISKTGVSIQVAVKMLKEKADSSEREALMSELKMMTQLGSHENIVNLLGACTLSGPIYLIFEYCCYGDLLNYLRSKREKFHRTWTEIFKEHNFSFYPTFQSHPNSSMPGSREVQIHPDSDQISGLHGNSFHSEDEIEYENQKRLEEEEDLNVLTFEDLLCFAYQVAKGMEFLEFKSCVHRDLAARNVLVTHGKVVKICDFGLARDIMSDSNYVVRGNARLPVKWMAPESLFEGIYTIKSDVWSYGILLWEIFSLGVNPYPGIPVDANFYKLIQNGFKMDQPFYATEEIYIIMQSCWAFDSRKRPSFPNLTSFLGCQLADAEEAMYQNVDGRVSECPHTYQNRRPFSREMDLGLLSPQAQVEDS
Briefly: FLT3 kinase assay. Particulars: ATP 200 μM; FLT3 4.5 nM; Caliper LabChip 3000. As for the experimental part:
as §1, with “FLT3” for “CDK2E”, “FLT3” for “bacterially expressed, CDK2E”, “product.” for “product”, “200 μM,” for “30 μM;”, “FLT3, 4.5 nM” for “CDK2E, 0.2 nM;”

The target in the next test is GST-Met (Homo sapiens, UniProt P08581). Briefly: Met Kinase Assay. To be noted: 1 μM ATP; 33P γ-ATP, poly(Glu/Tyr); 1 h at 30° C. As for the experimental part:
Kinase reactions consisted of 0.75 ng of baculovirus expressed GST-Met, 3 ug poly(Glu/Tyr) (Sigma), 0.12 μCi 33P γ-ATP, 1 μM ATP in 30 μl kinase buffer (20 mm TRIS-C1, 5 mM MnCl2, 0.1 mg/ml BSA, 0.5 mM DTT). Reactions were incubated for 1 h at 30° C. and stopped by the addition of cold trichloroacetic acid (TCA) to a final concentration 8%. TCA precipitates were collected onto GF/C unifilter plates using a Filtermate universal harvester and the filters were quantitated using a TopCount 96-well liquid scintillation counter. Dose response curves were generated to determine the concentration required to inhibit 50% of kinase activity (IC50). Compounds were dissolved at 10 mM in dimethylsulfoxide (DMSO) and evaluated at seven concentrations, each in triplicate.

For another test, the target named is T2, GSK3-β (Homo sapiens, UniProt P49841).
T2 construct: His
In words: GSK3-β kinase assay. Particulars: ATP 30 μM; His-GSK3B 2.4 nM; Caliper LabChip 3000; read-out: GSK-3β IC50. As for the experimental part:
(§2) The assays were performed in U-bottom 384-well plates. The final assay volume was 30 μl prepared from 15 μl additions of enzyme and substrates (fluoresceinated peptide FL-GSK substrate and ATP) and test compounds in assay buffer (100 mM HEPES pH 7.2, 10 mM MgCl2, 0.015% Brij35, 25 mM β-glycerolphosphate and 4 mM DTT). The reaction was initiated by the combination of GSK3-β with substrates and test compounds. The reaction was incubated at room temperature for 60 min. and terminated by adding 30 μl of 35 mM EDTA to each sample. The reaction mixture was analyzed on the Caliper LabChip 3000 (Caliper, Hopkinton, Mass.) by electrophoretic separation of the fluorescent substrate and phosphorylated product Inhibition data were calculated by comparison to no enzyme control reactions for 100% inhibition and vehicle-only reactions for 0% inhibition. The final concentration of reagents in the assays is ATP, 30 μM; FL-GSK substrate, 1.5 μM; His-GSK3B, 2.4 nM; and DMSO, 1.6%.

The target of another test is IGF1-receptor (Homo sapiens, UniProt P08069). In words: IGF1-Receptor Tyrosine Kinase Assay. Particulars: ATP 25 μM; IGF1-Receptor 14 nM; Caliper LabChip 3000; read-out: IGF1R IC50. As for the experimental part: D. IGF1-Receptor Tyrosine Kinase Assay
The assays were performed in U-bottom 384-well plates. The final assay volume was 30 μl prepared from 15 μl additions of enzyme and substrates (fluoresceinated IGF1R substrate peptide and ATP) and test compounds in assay buffer (100 mM HEPES pH 7.4, 10 mM MnCl2, 0.015% Brij35 and 4 mM DTT). The reaction was initiated by the combination of IGF1-receptor with substrates and test compounds. The reaction was incubated at room temperature for 60 min. and terminated by adding 30 μl of 35 mM EDTA to each sample. The reaction mixture was analyzed on the Caliper LabChip 3000 by electrophoretic separation of the fluorescent substrate and phosphorylated product. Inhibition data were calculated by comparison to no enzyme control reactions for 100% inhibition and vehicle-only reactions for 0% inhibition. The final concentration of reagents in the assays is ATP, 25 μM; FL-peptide, 1.5 μM; IGF1-Receptor, 14 nM; and DMSO, 1.6%. Dose response curves were generated to determine the concentration required inhibiting 50% of kinase activity (IC50). Compounds were dissolved at 10 mM in dimethylsulfoxide (DMSO) and evaluated at eleven concentrations, each in duplicate. IC50 values were derived by non-linear regression analysis

Another test concerns the target JAK2 (Homo sapiens, UniProt O60674). In words: JAK2 kinase assay. To be noted: ATP 30 μM; activated JAK2; Caliper LabChip 3000. As for the experimental part: as §2, with “FL-JAK2” for “FL-GSK”, “activated JAK2” for “GSK3-β”, “product.” for “product”, “FL-JAK2 peptide,” for “FL-GSK substrate,”, “[…], 2.6” for “His-GSK3B, 2.4”

pIC50: −log10 of the molar value.

Chain of GST-Met (P08581 25-1390): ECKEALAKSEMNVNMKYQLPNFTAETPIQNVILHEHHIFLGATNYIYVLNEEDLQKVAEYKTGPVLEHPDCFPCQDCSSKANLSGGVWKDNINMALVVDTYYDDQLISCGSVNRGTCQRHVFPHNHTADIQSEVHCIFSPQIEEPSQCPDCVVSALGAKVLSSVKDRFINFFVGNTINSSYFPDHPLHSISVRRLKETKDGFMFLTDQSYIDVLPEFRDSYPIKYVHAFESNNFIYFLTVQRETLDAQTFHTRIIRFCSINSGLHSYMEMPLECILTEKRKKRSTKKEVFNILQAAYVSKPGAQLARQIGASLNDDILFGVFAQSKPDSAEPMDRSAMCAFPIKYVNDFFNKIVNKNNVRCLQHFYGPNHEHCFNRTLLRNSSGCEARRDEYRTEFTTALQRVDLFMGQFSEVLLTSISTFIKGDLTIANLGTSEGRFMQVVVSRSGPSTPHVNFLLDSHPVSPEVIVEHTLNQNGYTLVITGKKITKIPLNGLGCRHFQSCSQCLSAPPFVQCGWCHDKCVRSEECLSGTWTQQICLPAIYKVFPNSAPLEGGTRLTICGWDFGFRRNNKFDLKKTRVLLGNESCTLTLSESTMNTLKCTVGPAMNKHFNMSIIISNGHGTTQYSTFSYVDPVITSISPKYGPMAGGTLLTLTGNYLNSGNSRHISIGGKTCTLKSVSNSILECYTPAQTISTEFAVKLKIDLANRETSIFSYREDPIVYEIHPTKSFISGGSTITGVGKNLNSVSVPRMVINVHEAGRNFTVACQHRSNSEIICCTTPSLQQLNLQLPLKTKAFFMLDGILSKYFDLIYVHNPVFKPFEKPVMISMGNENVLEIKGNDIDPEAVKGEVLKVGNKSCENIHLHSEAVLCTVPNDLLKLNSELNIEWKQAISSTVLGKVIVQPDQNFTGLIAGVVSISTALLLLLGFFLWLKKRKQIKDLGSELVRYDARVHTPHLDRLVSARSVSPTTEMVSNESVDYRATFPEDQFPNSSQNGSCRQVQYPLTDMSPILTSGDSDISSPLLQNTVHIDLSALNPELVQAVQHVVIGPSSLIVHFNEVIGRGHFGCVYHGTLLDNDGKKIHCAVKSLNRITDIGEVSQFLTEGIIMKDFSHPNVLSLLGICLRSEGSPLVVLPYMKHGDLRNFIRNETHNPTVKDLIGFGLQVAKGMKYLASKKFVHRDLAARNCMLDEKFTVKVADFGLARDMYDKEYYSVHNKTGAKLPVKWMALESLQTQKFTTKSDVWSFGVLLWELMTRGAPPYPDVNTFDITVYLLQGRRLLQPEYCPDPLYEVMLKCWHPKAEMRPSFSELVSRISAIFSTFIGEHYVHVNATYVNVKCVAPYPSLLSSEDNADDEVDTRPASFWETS
Chain of IGF1-receptor (P08069 31-1367): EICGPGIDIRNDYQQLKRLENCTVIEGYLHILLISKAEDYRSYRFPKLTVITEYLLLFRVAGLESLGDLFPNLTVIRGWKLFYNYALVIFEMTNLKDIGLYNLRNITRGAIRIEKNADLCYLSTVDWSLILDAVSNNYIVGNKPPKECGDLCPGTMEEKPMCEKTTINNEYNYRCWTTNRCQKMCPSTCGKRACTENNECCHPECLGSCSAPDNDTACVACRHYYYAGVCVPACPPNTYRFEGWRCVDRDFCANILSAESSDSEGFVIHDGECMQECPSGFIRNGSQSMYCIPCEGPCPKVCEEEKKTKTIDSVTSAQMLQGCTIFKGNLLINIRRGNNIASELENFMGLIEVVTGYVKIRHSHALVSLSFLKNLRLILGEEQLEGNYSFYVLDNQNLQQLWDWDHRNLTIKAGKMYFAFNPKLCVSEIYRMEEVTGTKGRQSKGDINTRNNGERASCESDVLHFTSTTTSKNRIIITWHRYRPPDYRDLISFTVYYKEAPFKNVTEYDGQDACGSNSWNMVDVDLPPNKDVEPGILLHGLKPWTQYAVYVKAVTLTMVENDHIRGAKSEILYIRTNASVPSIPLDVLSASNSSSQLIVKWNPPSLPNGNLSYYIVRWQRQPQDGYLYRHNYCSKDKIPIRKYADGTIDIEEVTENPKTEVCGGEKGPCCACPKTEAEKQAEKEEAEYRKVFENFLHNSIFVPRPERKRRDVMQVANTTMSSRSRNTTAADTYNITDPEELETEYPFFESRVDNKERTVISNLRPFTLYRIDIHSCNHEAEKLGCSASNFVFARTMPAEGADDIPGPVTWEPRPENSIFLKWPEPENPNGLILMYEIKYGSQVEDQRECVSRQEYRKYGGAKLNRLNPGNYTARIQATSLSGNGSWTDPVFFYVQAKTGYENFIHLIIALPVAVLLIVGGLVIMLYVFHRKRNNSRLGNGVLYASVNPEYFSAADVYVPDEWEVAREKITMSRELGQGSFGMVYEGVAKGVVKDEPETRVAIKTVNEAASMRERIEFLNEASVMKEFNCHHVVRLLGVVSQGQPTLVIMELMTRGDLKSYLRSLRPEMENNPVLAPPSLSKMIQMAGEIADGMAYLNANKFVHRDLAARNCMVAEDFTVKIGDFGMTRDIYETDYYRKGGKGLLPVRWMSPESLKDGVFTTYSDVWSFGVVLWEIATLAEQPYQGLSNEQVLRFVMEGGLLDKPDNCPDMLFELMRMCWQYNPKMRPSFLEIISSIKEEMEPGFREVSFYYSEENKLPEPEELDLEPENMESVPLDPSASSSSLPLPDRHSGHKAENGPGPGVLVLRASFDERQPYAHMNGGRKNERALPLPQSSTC
T2 sequence (P49841 whole entry): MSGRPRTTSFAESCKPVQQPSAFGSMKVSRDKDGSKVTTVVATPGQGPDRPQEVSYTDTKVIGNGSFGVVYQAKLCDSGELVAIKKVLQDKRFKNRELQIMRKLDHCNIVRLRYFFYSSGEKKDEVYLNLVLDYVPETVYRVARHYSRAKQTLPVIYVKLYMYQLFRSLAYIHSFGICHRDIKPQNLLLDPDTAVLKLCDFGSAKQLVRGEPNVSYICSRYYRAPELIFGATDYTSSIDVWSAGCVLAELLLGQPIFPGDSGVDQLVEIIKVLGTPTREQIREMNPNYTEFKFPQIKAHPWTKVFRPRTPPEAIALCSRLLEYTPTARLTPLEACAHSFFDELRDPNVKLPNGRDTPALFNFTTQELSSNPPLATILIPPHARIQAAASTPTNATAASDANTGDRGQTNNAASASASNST
Chain of JAK2 (O60674 whole entry): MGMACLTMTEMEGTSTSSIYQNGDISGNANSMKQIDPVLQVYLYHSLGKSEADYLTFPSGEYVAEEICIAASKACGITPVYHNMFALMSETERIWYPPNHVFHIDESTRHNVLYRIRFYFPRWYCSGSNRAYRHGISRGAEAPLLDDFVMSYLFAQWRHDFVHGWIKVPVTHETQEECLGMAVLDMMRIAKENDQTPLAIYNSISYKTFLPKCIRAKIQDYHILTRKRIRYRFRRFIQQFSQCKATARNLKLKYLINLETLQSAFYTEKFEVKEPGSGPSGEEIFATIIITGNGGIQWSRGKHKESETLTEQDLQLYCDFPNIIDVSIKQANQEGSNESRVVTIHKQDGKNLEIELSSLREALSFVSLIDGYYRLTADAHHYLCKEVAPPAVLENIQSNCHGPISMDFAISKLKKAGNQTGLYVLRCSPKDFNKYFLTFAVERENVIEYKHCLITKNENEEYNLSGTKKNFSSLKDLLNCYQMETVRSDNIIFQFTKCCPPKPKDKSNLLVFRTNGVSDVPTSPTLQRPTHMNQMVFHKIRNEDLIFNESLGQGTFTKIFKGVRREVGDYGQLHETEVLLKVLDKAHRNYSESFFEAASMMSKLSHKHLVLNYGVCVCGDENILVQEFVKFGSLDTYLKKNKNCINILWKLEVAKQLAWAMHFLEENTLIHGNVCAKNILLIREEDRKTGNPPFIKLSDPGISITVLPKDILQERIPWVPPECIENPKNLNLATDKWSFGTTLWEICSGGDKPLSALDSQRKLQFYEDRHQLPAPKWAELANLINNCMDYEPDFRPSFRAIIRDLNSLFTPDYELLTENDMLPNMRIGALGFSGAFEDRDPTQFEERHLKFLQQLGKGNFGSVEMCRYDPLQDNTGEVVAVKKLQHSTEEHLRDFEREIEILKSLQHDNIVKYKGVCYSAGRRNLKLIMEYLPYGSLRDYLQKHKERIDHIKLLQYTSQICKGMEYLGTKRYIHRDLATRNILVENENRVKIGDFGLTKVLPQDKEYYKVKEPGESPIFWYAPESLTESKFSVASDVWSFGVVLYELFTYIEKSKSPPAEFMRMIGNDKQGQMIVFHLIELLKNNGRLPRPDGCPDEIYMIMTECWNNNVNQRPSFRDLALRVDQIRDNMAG

As to `O=C(c1ccc(F)nc1)N1CCC[C@H]1c1nc(Nc2cc(C3CC3)[nH]n2)c2cccn2n1` [Example 1, (S)-(2-(4-(5-Cyclopropyl-1H-pyrazol-3-ylamino)pyrrolo[1,2-f][1,2,4]triazin-2-yl)pyrrolidin-1-yl)(6-fluoropyridin-3-yl)methanone], the pIC50 on CDK2E is 5.73; at FLT3 it was 7.54; on GST-Met it was 7.55; at GSK3-β it was 6.54.

For `O=C(c1nccs1)N1CCC[C@H]1c1nc(Nc2cc(C3CC3)[nH]n2)c2cccn2n1` [Example 2, (S)-(2-(4-(5-Cyclopropyl-1H-pyrazol-3-ylamino)pyrrolo[1,2-f][1,2,4]triazin-2-yl)pyrrolidin-1-yl)(thiazol-2-yl)methanone], the pIC50 on CDK2E was 7.06; on FLT3, 9.00; against GST-Met it was 6.77; at IGF1-receptor, 8.30; at GSK3-β it was 7.62.

For the molecule `CC(=O)N1CCC[C@H]1c1nc(Nc2cc(C3CC3)[nH]n2)c2cccn2n1` [Example 4, (S)-1-(2-(4-(5-Cyclopropyl-1H-pyrazol-3-ylamino)pyrrolo[1,2-f][1,2,4]-triazin-2-yl)pyrrolidin-1-yl)ethanone], the pIC50 on CDK2E is 8.30; on FLT3, 9.00; against GST-Met it was 5.75; at IGF1-receptor it was 6.87; at GSK3-β, 7.70.

As for `CC(C)(C)OC(=O)N1CCC(C(=O)N2CCC[C@@H]2c2nc(Nc3cc(C4CC4)[nH]n3)c3cccn3n2)CC1` [Example 13, (R)-tert-Butyl 4-(2-(4-(5-cyclopropyl-1H-pyrazol-3-ylamino)pyrrolo[1,2-f][1,2,4]triazin-2-yl)pyrrolidine-1-carbonyl)piperidine-1-carboxylate], the pIC50 was 4.76 at CDK2E; 6.51 at FLT3; 4.66 on JAK2; 6.50 at IGF1-receptor; 5.35 at GSK3-β.
